Assay results: patent US20070218555A1, “Anti-Microbial Activity Of Biologically Stabilized Silver Nano Particles” (priority 2004, published 2007)

Key:
[1] = system: Pseudomonas aeruginosa MDR strain; experiment: Interaction of drugs with silver nano particles, checkerboard macrodilution (FICI); type: cell-based; settings: drug in combination with biologically stabilized silver nano particles
Procedure: Interaction of drugs with biologically stabilized silver nano particles. A two-dimensional checkerboard macrodilution technique was used to characterize interactions between biologically stabilized silver nano particles and drug (viz. Gentamicin, Penicillin, Cefotaxime, Ceptazidime, Kanamycin, Vancomycin). six experiments were performed for Pseudomonas aeruginosa MDR strain described above. Inoculum was prepared similarly to those for susceptibility testing. Individual drug with biologically stabilized silver nano particles were diluted in serial twofold dilutions, and concentrations ranged from four fold below to four folds above the MIC. The highest dilution of the drug combination with biologically stabilized silver nano particles that inhibits the visible growth of the test organism was regarded as the fractional inhibitory concentration (FIC). The fractional inhibitory concentration (FIC) index (FICI) was used to define the interaction between the two drugs. The FICI is the sum of the FICs of each of the drugs. The FIC was calculated as follows: MIC of the drug tested in combination/MIC of the drug tested alone. The interaction was defined as synergistic if the FICI was […], as additive if the FICI was >0.5 to 1.0, as indifferent if the FICI was >1.0 to 2.0, and as antagonistic if the FICI was >2.0.

[2] = system: human dermal fibroblast cells; settings: cited from earlier work

| SMILES | interaction by mean FICI [1] | low concentration of silver ions showing inhibitory effect [2] [μM/l] |
| --- | --- | --- |
| CC(C)(O/N=C(\C(=O)N[C@@H]1C(=O)N2C(C(=O)[O-])=C(C[n+]3ccccc3)CS[C@H]12)c1csc(N)n1)C(=O)O [ceptazidime] | partially synergistic |  |
| O=[N+]([O-])[O-].[Ag+] [silver nitrate] |  | 8.2 |
